Data taken from the NIST ThermoML archive (doi:10.1016/j.jct.2012.11.004).

Test: mn = molality of the nth substance listed, in mol/kg
Conditions: 101 kPa, Liquid; for mass density: Vibrating tube method; for speed of sound: Pulse-echo method

O=S(=O)([O-])C(F)(F)F.O=S(=O)([O-])C(F)(F)F.O=S(=O)([O-])C(F)(F)F.[La+3] [lanthanum(III) trifluoromethanesulfonate] + CC(=O)N(C)C
Conditions | mass density, 283.15 K [kg/m3] | mass density, 293.15 K [kg/m3] | mass density, 298.15 K [kg/m3] | mass density, 303.15 K [kg/m3] | mass density, 313.15 K [kg/m3] | mass density, 323.15 K [kg/m3] | mass density, 333.15 K [kg/m3] | speed of sound, 298.15 K [m/s]
m1 = 0.02085 | 958.67 | 949.47 | 944.86 | 940.26 | 931.01 | 921.74 | 912.42 | –
m1 = 0.02801 | 961.64 | 952.45 | 947.84 | 943.23 | 933.99 | 924.71 | 915.39 | –
m1 = 0.03761 | 965.63 | 956.43 | 951.81 | 947.21 | 937.97 | 928.7 | 919.38 | –
m1 = 0.04797 | 969.94 | 960.74 | 956.14 | 951.53 | 942.29 | 933.02 | 923.71 | –
m1 = 0.05797 | 974.13 | 964.94 | 960.34 | 955.73 | 946.49 | 937.22 | 927.91 | –
m1 = 0.07244 | 980.27 | 971.08 | 966.48 | 961.88 | 952.67 | 943.36 | 934 | 1455.9
m1 = 0.09378 | 989.43 | 980.24 | 975.64 | 971.03 | 961.79 | 952.5 | 943.16 | –
m1 = 0.1127 | 997.64 | 988.45 | 983.85 | 979.24 | 969.99 | 960.7 | 951.36 | –
m1 = 0.1302 | 1005.34 | 996.15 | 991.55 | 986.95 | 977.69 | 968.39 | 959.05 | –
m1 = 0.1523 | 1015.25 | 1006.06 | 1001.46 | 996.85 | 987.59 | 978.29 | 968.93 | –
m1 = 0.1712 | 1023.81 | 1014.62 | 1010.03 | 1005.42 | 996.16 | 986.84 | 977.5 | –

O=S(=O)([O-])C(F)(F)F.O=S(=O)([O-])C(F)(F)F.O=S(=O)([O-])C(F)(F)F.[Lu+3] [lutetium(III) trifluoromethanesulfonate] + CN(C)C=O
Conditions | mass density, 283.15 K [kg/m3] | mass density, 293.15 K [kg/m3] | mass density, 298.15 K [kg/m3] | mass density, 303.15 K [kg/m3] | mass density, 313.15 K [kg/m3] | mass density, 323.15 K [kg/m3] | mass density, 333.15 K [kg/m3] | speed of sound, 298.15 K [m/s]
m1 = 0.02151 | 967.66 | 958.14 | 953.37 | 948.59 | 939.01 | 929.39 | 919.7 | 1455.4
m1 = 0.02883 | 970.96 | 961.44 | 956.67 | 951.89 | 942.3 | 932.66 | 922.98 | 1454.7
m1 = 0.03776 | 975 | 965.46 | 960.69 | 955.91 | 946.32 | 936.69 | 927 | 1454
m1 = 0.04886 | 980.05 | 970.51 | 965.73 | 960.95 | 951.35 | 941.71 | 932.02 | 1452.9
m1 = 0.0599 | 985.11 | 975.57 | 970.79 | 966.01 | 956.39 | 946.76 | 937.05 | 1451.8
m1 = 0.07513 | 992.17 | 982.63 | 977.84 | 973.05 | 963.43 | 953.77 | 944.07 | 1450.5
m1 = 0.09644 | 1002.19 | 992.62 | 987.83 | 983.03 | 973.4 | 963.72 | 954 | 1448
m1 = 0.1156 | 1011.35 | 1001.77 | 996.97 | 992.16 | 982.52 | 972.84 | 963.09 | 1445.9
m1 = 0.1337 | 1020.13 | 1010.53 | 1005.72 | 1000.91 | 991.25 | 981.57 | 971.83 | 1444.2
m1 = 0.1557 | 1031 | 1021.38 | 1016.56 | 1011.75 | 1002.08 | 992.37 | 982.6 | 1441.8
m1 = 0.1744 | 1040.3 | 1030.66 | 1025.84 | 1021.02 | 1011.33 | 1001.62 | 991.84 | 1439.7
